Measurements: US20090042814A1, “Treatment and Diagnosis of Obligate Intracellular Pathogens” (priority 2005, published 2009)

Assays:
[1] = test system: Chlamydia trachomatis; assay: Antibiotic susceptibility test in McCoy cells (MIC, no inclusions detected); format: cell-based; conditions: 72 h
Experimental: (§1) For Chlamydia trachomatis isolation McCoy cells were used and for Chlamydia pneumoniae—HL cells.
(§2) Cells of each cell line were seeded into 24-well cell culture plates (approximately 2×10^5 cells per well) with cover-slips and incubated at 37° C. for 24 h to achieve monolayer confluence.
(§3) 1 ml of serum was centrifuged at 14,000×g for 1 h at 4° C. to sediment bacterial cells. Supernatant was discarded and pellet was suspended in 0.5 ml of GM (growth medium: RPMI, 5% [vol/vol] fetal calf serum, 2.0 mM L-glutamine, 8.8% [vol/vol] glucose, 4.0 μg of gentamicin per ml and 5.0 of amfotherycin B/ml). The cell monolayers were inoculated with the suspensions and centrifuged at 2,500×g for an hour at 20 °C. The infected cells were incubated for 2 h at 37° C.; after that, the medium was removed and replaced by GM with cycloheximide (1.0 μg/ml). The cells were incubated at 37° C. in 4% CO2 for 72 h.
(§4) The cells on the cover-slips were fixed with acetone and stained with a fluorescein isothiocyanate (FITC)-labeled Chlamydia genus-specific (anti-LPS) and Chlamydia trachomatis-specific (anti-MOMP) antibodies. Chlamydia inclusions were detected by fluorescent microscopy.
(§5) McCoy and HL cells were seeded and inoculated with serum samples as described above but after centrifugation at 2,500×g for an hour and incubation for 2 h at 37° C. the infected cells were overlaid with the growth medium containing serial twofold dilutions of the antibiotic (Azithromycin, Pliva) at concentration range from 0.05 to 0.8 μg/ml and incubated at 37° C. in 4% CO2 for 72 h. Chlamydia trachomatis L-2 and Chlamydia pneumoniae Kajaani 6 strains were used as reference strains. The MIC was defined as the lowest concentration at which no inclusions were detected.

[2] = test system: Chlamydia pneumoniae; assay: Antibiotic susceptibility test in HL cells (MIC, no inclusions detected); format: cell-based; conditions: 72 h
Experimental: as §1, §2, §3, §4, §5

## CC[C@H]1OC(=O)[C@H](C)[C@@H](O[C@H]2C[C@@](C)(OC)[C@@H](O)[C@H](C)O2)[C@H](C)[C@@H](O[C@@H]2O[C@H](C)C[C@H](N(C)C)[C@H]2O)[C@](C)(O)C[C@@H](C)CN(C)[C@H](C)[C@@H](O)[C@]1(C)O [Azithromycin]
[1]; Chlamydia trachomatis isolated from serum of Patient A
  Range of anti-microbial concentration: >0.4 µg/mL
[1]; Chlamydia trachomatis isolated from serum of Patient B
  Range of anti-microbial concentration: >0.4 µg/mL
[1]; Chlamydia trachomatis reference strain L-2, tested range 0.05 to 0.8 μg/ml
  Range of anti-microbial concentration: >0.1 µg/mL
[2]; Chlamydia pneumoniae isolated from serum of Patient C
  Range of anti-microbial concentration: >0.4 µg/mL
[2]; Chlamydia pneumoniae isolated from serum of Patient D
  Range of anti-microbial concentration: >0.4 µg/mL
[2]; Chlamydia pneumoniae reference strain Kajaani 6
  Range of anti-microbial concentration: >0.05 µg/mL
